One molecule from paper PMC8899516, “Structure-Activity Relationship Studies of 4-((4-(2-fluorophenyl)piperazin-1-yl)methyl)-6-imino-N-(naphthalen-2-yl)-1,3,5-triazin-2-amine (FPMINT) Analogues as Inhibitors of Human Equilibrative Nucleoside Transporters” (Frontiers in Pharmacology, 2022) can be followed below.

The target in one assay is T1, ENT2 (Homo sapiens, UniProt Q14542).
T1 construct: expressed in transfected cells
T1 sequence (Q14542 1-456): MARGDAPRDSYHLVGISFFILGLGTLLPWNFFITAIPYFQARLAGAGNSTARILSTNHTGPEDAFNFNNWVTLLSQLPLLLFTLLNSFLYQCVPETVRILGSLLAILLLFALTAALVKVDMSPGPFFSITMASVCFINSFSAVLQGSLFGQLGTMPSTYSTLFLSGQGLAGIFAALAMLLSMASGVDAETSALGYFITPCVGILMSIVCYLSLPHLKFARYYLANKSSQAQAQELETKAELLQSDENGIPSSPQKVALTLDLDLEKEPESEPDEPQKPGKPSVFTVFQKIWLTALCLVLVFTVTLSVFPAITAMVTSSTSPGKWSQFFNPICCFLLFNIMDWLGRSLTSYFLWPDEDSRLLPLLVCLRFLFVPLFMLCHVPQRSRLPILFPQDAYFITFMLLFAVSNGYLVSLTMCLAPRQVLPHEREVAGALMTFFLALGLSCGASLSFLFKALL
Kind of assay: [3H]uridine uptake in PK15NTD/ENT2 cells. In kind it is cell-based. The following applies: [3H]uridine 1 μM, 1 min, PK15NTD/ENT2 cells; read-out: IC50 against ENT2. The method, then:
Nucleoside transporter-deficient porcine kidney fibroblast cells (PK15NTD) stably transfected with cloned human ENT1 or ENT2 ([Ward et al., 2000]) were used as the in vitro models. The cells were cultured in Dulbecco’s Modified Eagle’s Medium (DMEM) supplemented with 10% (v/v) foetal bovine serum, 0.5 mg/ml geneticin, 100 units/ml penicillin, 100 μg/ml streptomycin and 0.25 μg/ml of amphotericin B at 37°C in 5% CO2/95% air.
The cells were incubated with different concentrations of FPMINT analogues (from 10 nM to 100 μM) containing [^3H]uridine (2 μCi/ml, 1 μM) for 1 min. Passive uridine uptake was determined by incubating the cells in HEPES-buffered Ringer’s solution containing [^3H]uridine in the presence of 0.5 mM NBMPR. The cells were rapidly washed five times with ice-cold phosphate-buffered saline (PBS). After air-drying, the cells were solubilised by overnight incubation in 500 μl of 5% Triton-X100. Next, 300 μl of the cell lysates were mixed with 2 ml of scintillation liquid. The radioactivity of each sample was quantified by a scintillation counter. The protein content in each well was determined spectrophotometrically using a commercial bicinchoninic acid assay (Pierce Biochemicals, Rockford, IL). Uptake values were expressed as picomoles of [^3H]uridine per milligram of cellular protein per minute.
All data were analysed by GraphPad Prism software (San Diego, CA, United States). Data are expressed as mean ± standard error (SE) of three experiments performed in triplicate. The IC50 values were determined from the dose-response curves fitted with a logistic function. For the kinetic study of [^3H]uridine uptake, apparent K m and V max values were determined from the Michaelis-Menten equation, and K i was determined from the X-intercept of linear regression. Analysis of variance and Student’s t-test were performed for multiple and paired variables, respectively. p values of <0.05 were considered to be statistically significant.

In a further assay the target is T2, ENT1 (Homo sapiens, UniProt Q99808).
T2 construct: expressed in transfected cells
T2 sequence (Q99808 1-456): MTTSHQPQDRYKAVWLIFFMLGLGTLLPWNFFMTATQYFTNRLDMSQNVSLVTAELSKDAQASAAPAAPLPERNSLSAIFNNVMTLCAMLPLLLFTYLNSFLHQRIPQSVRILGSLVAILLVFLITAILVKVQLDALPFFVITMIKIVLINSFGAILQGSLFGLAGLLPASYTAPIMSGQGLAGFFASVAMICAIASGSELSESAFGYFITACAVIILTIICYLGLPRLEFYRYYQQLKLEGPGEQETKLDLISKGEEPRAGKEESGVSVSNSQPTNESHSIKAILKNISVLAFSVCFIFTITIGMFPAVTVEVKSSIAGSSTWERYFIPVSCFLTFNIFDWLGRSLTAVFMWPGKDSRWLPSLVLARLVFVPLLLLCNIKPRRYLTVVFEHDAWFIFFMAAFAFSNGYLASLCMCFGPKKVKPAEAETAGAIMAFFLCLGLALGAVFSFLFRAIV
Kind of assay: Wash-out reversibility of [3H]uridine uptake inhibition in PK15NTD/ENT1 cells. In kind it is cell-based. The following applies: 50 µM, incubation 1–60 min, washed five times. The protocol: To determine whether the inhibitory effects of compound 3c were reversible or irreversible, PK15NTD/ENT1 and PK15NTD/ENT2 cells were incubated with 50 µM of compound 3c for different time periods (1–60 min). The cells were then washed five times with buffer. After wash-out for every single time [^3H]uridine uptake was measured. […] The longer the incubation time with compound 3c, the more difficult it was to wash-out the inhibitory effects of compound 3c.
FIGURE 6 Reversibility of the inhibitory effects of compound 3c on ENT1 and ENT2 (A) PK15NTD/ENT1 and (B) PK15NTD/ENT2 cells were incubated with 50 μM of compound 3c or a vehicle (0.5% DMSO, as a control) for different time (0–60 min) The cells were then washed five times. After wash-out for every single time [^3H]uridine uptake (1 μM, 2 μCi/ml) was measured. Data are presented as mean ± SE of three experiments. ^* p < 0.05 compared with the fifth wash.

In the case of `Cc1cccc(Nc2nc(N)nc(CN3CCN(c4ccc(F)cc4)CC3)n2)c1` [Compound 3c], on ENT2, the IC50 came out at 570 nM. At ENT1, the “reversibility of inhibitory effect on ENT1 by washing” value is recorded as “only partially reversed by washing”.

As usually defined, the IC50 is the concentration that inhibits the measured activity by half.
